Source: patent US11008325B2, “Inhibitors of cancer invasion, attachment, and/or metastasis” (VIRGINIA COMMONWEALTH UNIVERSITY, priority 2016, dated 2021)
“Also recorded” adds a separate entry of the source.

How the values were obtained:
[1] = target: MDA-9/Syntenin PDZ2 only domain (Homo sapiens, UniProt O00560); assay: NMR [15N,1H] HSQC binding, counter domain; details: up to 100 μM compound, 20 μM protein
Experimental: FIG. 52. Left panel, Docked structure of compound 113B7 on the surface of MDA-9/Syntenin. The docked structure is supported by NMR chemical shift mapping data. The titration (see later in FIG. 55 for chemical shift mapping and titration) allows for the calculation of an upper limit for the dissociation constant of the complex, Kd<10 μM. […] The [^15N,^1FI]-HSQC spectra of MDA-9/Syntenin PDZ2 only domain are reported in the top right panel (apo at 20 μM; in presence of 100 μM 113B7). In the bottom right panel can be seen the spectra of the PDZ domain from X11/mint scaffold protein (33% identity with PDZ1) are reported in absence (20 μM protein) and in presence of 100 μM 113B7.
Based on these studies and NMR guided initial docking calculations, >50 bi-dentate compounds were synthesized and tested, leading to compound 113B7 (FIG. 52). […] Moreover, as a way to further address specificity of our ligands, we also tested the most promising compounds against two closely related domains to the PDZs of MDA-9/Syntenin, such as the PDZ tandem protein Harmonin (36% identity to PDZ2 of MDA-9/Syntenin and 31% to PDZ1 of MDA-9/syntenin) or PDZ domain from X11/mint scaffold protein (33% identity with PDZ1), and no significant binding to these counter-screen proteins was observed (FIG. 52).

ARCaPM-Luc cells = assay: PDZ1i pre-treated ARCaPM-Luc cells injected intravenously; format: in vivo, athymic nude mice
Experimental: FIG. 19A-19F. PDZ1i suppresses prostate cancer metastasis and tumor progression. FIG. 19A) Survival data for athymic nude mice in which DMSO or PDZ1i pre-treated ARCaPM cells were injected. FIG. 19B) Survival data for athymic nude mice which were injected with (n=5, each group) ARCaPM-Luc (1×10^6 cells in 100 μl saline) through an intracardiac route. Mice received either vehicle or PDZ1i every alternative day (9 injections during the first three months) and maintained until they needed to be euthanized. FIG. 19C) Survival data for C57BL/6 mice injected through the intracardiac route with RM1-Luc. Vehicle or PDZ1i was administered through intraperitoneal injection every alternate day (total 3 injections during the first week). Survival curves were generated using 6 control vehicle-treated and 5 PDZ1i-treated. Kaplan—Meier survival curves were prepared using Graph Pad software. […] Graphical representation of the average prostate weights from control and treated groups. FIG. 19E and FIG. 19F) Photomicrographs representing the histological changes in prostate sections obtained from 6-month old Hi-Myc mice receiving either vehicle (FIG. 19E) or PDZ1i (FIG. 19F).
To evaluate potential therapeutic efficacy of PDZ1i four sets of in vivo experiments were conducted. […]

[2] = tested on: PDZ domain from X11/mint scaffold protein; assay: NMR [15N,1H] HSQC counter screen; format: binding; details: 20 μM protein, 100 μM 113B7
Experimental: FIGS. 4A-4E. FIG. 4A. Chemical structures of the two initial fragment hits (top) and the structure of the resulting molecule 113B7 (PDZ1i). FIG. 4B. Superposition of 2D [^15N, ^1H]-HSQC spectra of 50 μM MDA-9 PDZ12 tandem domain in the absence and presence of 350 μM 113B7. FIG. 4C. Binding curve and representative spectra for the titration of 113B7 against MDA-9 PDZ12 tandem domain. Top: Zoom of box region in FIG. 4B after titrating 113B7 into Mda9 PDZ, tandem domain. The cross peak corresponding to the backbone amide of residue A147 experiences a gradual shift upon the addition of 113B7. Bottom: Titration curve of 113B7 for residue A147. The dissociation constant for the binding of 113B7 to MDA-9 was calculated to be 21.37±8.62 μM. FIG. 4D. Superposition of 2D [^15N, ^1H]-HSQC spectra of 50 μM PDZ domain from X11/mint scaffold protein ([…]; 33% identity with PDZ1) are shown in absence and in presence of […] 113B7. […] FIG. 4E. Docked structure of 113B7 in complex with MDA-9 PDZ tandem domain (PDB: 1W9E). The pose was obtained with GOLD. Two PDZ domains of MDA-9 are labeled.
FIG. 52. Left panel, Docked structure of compound 113B7 on the surface of MDA-9/Syntenin. The docked structure is supported by NMR chemical shift mapping data. […]

Sequence of MDA-9/Syntenin PDZ2 only domain (O00560 198-273 limits assumed): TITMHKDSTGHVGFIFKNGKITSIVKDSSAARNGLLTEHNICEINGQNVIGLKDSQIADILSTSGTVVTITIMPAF

With Cc1cc(NC(=O)c2nc3[nH]c4c(c(=O)n3n2)CCC4)c(C)cc1NC(=O)CCc1nnc(-c2ccccc2)o1 [113B7, N-(2,5-dimethyl-4-(3-(5-phenyl-1,3,4-oxadiazol-2-yl)propanamido)phenyl)-8-oxo-5,6,7,8-tetrahydro-4H-cyclopenta[d][1,2,4]triazolo[1,5-a]pyrimidine-2-carboxamide] the “binding to PDZ2 domain” value [1] was “does not bind appreciably; also recorded: does not appreciably bind; also recorded: do not significantly bind”, the “cancer cell concentrations in the lungs” value (ARCaPM-Luc cells; cells pre-treated with 50 μM PDZ1i) was “lower cancer cell concentrations in the lungs” and the survival (ARCaPM-Luc cells; cells pre-treated with PDZ1i) was “survived longer”. The “binding to X11/mint PDZ domain” value [2] was “No appreciable binding is detected”.
